Test results taken from patent publication US11351236B2, “BCMA chimeric antigen receptors” (2seventy bio, Inc., priority 2014, dated 2022).

Tested on: human multiple myeloma (RPMI-8226) tumors
Assay: Sub-cutaneous human multiple myeloma (RPMI-8226) tumor model in NSG mice
Type: in vivo, mouse
Conditions: ~100 mm^3 RPMI-8226 tumors, 10^7 CAR T cells or Bortezomib, two independent experiments
Procedure: Hyperactivation and increased apoptosis could negatively impact CAR T cell persistence in patients and ultimately clinical efficacy. The anti-tumor function of anti-BCMA02 CAR T cells and anti-BCMA10 CAR T cells was examined in a mouse tumor model. NOD scid gamma (NSG) mice with ˜100 mm^3 experimental sub-cutaneous human multiple myeloma (RPMI-8226) tumors were treated with 10^7 anti-BCMA02 CAR T cells, 10^7 anti-BCMA10 CAR T cells, or Bortezomib (velcade). RPMI-8226 growth was monitored with calipers.

## CC(C)C[C@H](NC(=O)[C@H](Cc1ccccc1)NC(=O)c1cnccn1)B(O)O [Bortezomib]
  tumor growth (calipers): controlled tumor growth
